# Reference: ChEMBL document CHEMBL3751755, “Developing steroidal aromatase inhibitors-an effective armament to win the battle against breast cancer” (Eur J Med Chem, 2015)
# pIC50, pKi: −log10 of the molar value.
# Columns and labels:
# Aromatase [1] = molecular target: T1, Aromatase (Homo sapiens, UniProt P11511); assay: Inhibition of human aromatase extracted from placental microsomes using [1-3H]androstenedione as substrate
# T1 sequence (P11511 whole entry): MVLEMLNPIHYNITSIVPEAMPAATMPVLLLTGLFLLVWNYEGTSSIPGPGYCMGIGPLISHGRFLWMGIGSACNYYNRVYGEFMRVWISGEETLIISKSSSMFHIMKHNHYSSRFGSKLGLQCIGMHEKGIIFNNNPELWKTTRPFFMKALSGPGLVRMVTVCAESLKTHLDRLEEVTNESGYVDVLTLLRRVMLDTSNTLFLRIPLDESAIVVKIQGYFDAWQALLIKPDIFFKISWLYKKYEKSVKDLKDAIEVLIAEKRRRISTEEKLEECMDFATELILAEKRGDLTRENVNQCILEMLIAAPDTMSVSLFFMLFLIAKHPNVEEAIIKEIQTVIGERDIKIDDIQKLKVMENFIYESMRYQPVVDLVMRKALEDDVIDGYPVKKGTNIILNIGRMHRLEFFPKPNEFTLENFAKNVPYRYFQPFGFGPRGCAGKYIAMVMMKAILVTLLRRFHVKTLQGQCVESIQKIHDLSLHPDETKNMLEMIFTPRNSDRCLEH
# [2] = Antitumor activity against NMU-induced mammary tumor in rat; assay type: functional
# Aromatase [3] = molecular target: T1, Aromatase
# Aromatase [4] = molecular target: T1, Aromatase; assay: Inhibition of human aromatase extracted from placental microsomes using [1beta-3H]androstenedione as substrate after 30 mins
# Aromatase [5] = molecular target: T1, Aromatase; assay: Inhibition of human aromatase extracted from placental microsomes using [1beta-3H]androstenedione as substrate at 10 to 500 nM after 30 mins; conditions: 0.5 h
# Aromatase [6] = molecular target: T1, Aromatase; assay: Inhibition of human aromatase extracted from placental microsomes
# Aromatase [7] = molecular target: T1, Aromatase; assay: Time dependent inactivation of human aromatase extracted from placental microsomes using [1-3H]androstenedione as substrate
# Aromatase [8] = molecular target: T1, Aromatase; assay: Irreversible inhibition of human aromatase extracted from placental microsomes by double reciprocal plot analysis in presence of [1beta,2beta-3H]androstenedione
# Aromatase [9] = molecular target: T2, Aromatase (Rattus norvegicus, UniProt P22443); assay: Inhibition of aromatase in denucleated ovarian fraction extracted from PMSG pretreated Wistar rat by using testosterone as substrate after 15 mins by radio immuno assay
# T2 sequence (P22443 whole entry): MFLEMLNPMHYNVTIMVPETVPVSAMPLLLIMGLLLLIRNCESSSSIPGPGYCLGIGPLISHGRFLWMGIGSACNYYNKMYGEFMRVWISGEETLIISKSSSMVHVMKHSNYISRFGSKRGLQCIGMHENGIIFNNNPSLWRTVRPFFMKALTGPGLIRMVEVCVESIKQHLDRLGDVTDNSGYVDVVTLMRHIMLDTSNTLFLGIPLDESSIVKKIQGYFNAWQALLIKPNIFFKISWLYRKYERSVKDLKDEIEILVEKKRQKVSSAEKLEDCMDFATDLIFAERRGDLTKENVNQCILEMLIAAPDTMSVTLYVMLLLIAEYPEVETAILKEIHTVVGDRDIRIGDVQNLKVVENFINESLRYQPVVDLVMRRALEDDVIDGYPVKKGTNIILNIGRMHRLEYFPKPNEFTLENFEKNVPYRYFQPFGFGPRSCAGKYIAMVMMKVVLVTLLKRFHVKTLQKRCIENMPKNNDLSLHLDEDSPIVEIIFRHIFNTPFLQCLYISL
# Aromatase [10] = molecular target: T1, Aromatase; remark: listed apart in the source
# Aromatase [11] = molecular target: T1, Aromatase; assay: Time dependent inhibition of human aromatase extracted from placental microsomes using [1beta,2beta-3H]androstenedione as substrate by scintillation counting analysis
# Aromatase [12] = molecular target: T2, Aromatase; assay: Inhibition of aromatase in denucleated ovarian fraction extracted from PMSG pretreated Wistar rat by using testosterone as substrate at 1 uM
# Aromatase [13] = molecular target: T1, Aromatase; assay: Time dependent inactivation of human aromatase extracted from placental microsomes using [1,2-3H]androst-4-ene-3,17-dione
# Aromatase [14] = molecular target: T1, Aromatase; assay: Inhibition of human aromatase extracted from placental microsomes using [1beta,2beta-3H]androstenedione as substrate after 10 mins
# Aromatase [15] = molecular target: T1, Aromatase; assay: Inhibition of human aromatase extracted from placental microsomes using [1-3H]androstenedione as substrate at […]
# Aromatase [16] = molecular target: T1, Aromatase; assay: Inhibition of human aromatase extracted from placental microsomes using [1beta,2beta-3H]testosterone as substrate measured at 7 to 21 mins by scintillation counting analysis
# Aromatase [17] = molecular target: T1, Aromatase; assay: Inhibition of human aromatase extracted from placental microsomes at 520 nM after 10 mins
# Aromatase [18] = molecular target: T1, Aromatase; assay: Inhibition of human aromatase extracted from placental microsomes using [1beta-3H]androstenedione as substrate after 20 mins by radiometric assay
# Aromatase [19] = molecular target: T1, Aromatase; assay: Irreversible inhibition of human aromatase extracted from placental microsomes; conditions: read-out: Ki(app)
# Aromatase [20] = molecular target: T1, Aromatase; assay: Inhibition of human aromatase extracted from placental microsomes using [1beta,2beta-3H]androstenedione as substrate
# Aromatase [21] = molecular target: T1, Aromatase; assay: Inhibition of human aromatase extracted from placental microsomes using 4-[14C]androstenedione/androstenedione as substrate assessed as estrogen formation after 30 mins in NADPH-generating system; conditions: 0.5 h
# Aromatase [22] = molecular target: T2, Aromatase; assay: Inhibition of rat aromatase extracted from PMSG-primed ovarian fraction using 4-[14C]androstenedione/androstenedione as substrate assessed as estrogen formation after 30 mins in NADPH-generating system; conditions: 0.5 h
# Aromatase [23] = molecular target: T1, Aromatase; assay: Inhibition of human aromatase extracted from placental microsomes using [1beta-3H]androstenedione as substrate after 20 mins
# Aromatase [24] = molecular target: T1, Aromatase; assay: Inhibition of aromatase (unknown origin) at 50 uM
# Aromatase [25] = molecular target: T1, Aromatase; assay: Inhibition of human aromatase extracted from placental microsomes using [1,2-3H]androstenedione as substrate after 20 mins by scintillation counting analysis
# Aromatase [26] = molecular target: T2, Aromatase; assay: Inhibition of rat aromatase extracted from ovarian fraction using testosterone as substrate
# Aromatase [27] = molecular target: T1, Aromatase; assay: Inhibition of human aromatase extracted from placental microsomes using [1beta-3H]androstenedione as substrate after 15 mins by scintillation counting analysis
# Aromatase [28] = molecular target: T1, Aromatase; remark: listed apart in the source
# Aromatase [29] = molecular target: T1, Aromatase; assay: Time dependent inhibition of human aromatase extracted from placental microsomes using [1beta,2beta-3H]-testosterone as substrate after 10 mins by scintillation counting analysis
compound,measurement,setting,value
C=C1C=C2CC[C@@H]3[C@H](CC[C@]4(C)C(=O)CC[C@@H]34)[C@@]2(C=O)CC1,inhibition (INH),Aromatase [1],50%
C[C@]12CCC(=O)C(F)=C1CC[C@@H]1[C@@H]2CC[C@]2(C)C(=O)CC[C@@H]12,Activity,[2],44%
same,pKi,Aromatase [3],7.82
C[C@]12CC[C@H]3[C@@H](Cc4noc5c4[C@]3(C)CCC5=O)[C@@H]1CC[C@@H]2O,pIC50,Aromatase [4],4.73
same,inhibition (INH),Aromatase [5],50%
C[C@]12CC[C@H]3[C@@H](Cc4n[nH]c5c4[C@]3(C)CCC5=O)[C@@H]1CC[C@@H]2O,pIC50,Aromatase [6],6.63
C[C@]12CC[C@H]3[C@@H](CCC4=CC(=O)[C@H]5COC[C@]43C5)[C@@H]1CCC2=O,pKi,Aromatase [7],7.75
C[C@]12CC[C@H]3[C@@H](CCC4=CC(=O)CC[C@@]43S)[C@@H]1CC[C@@H]2O,pKi,Aromatase [8],6.97
C[C@@H]1OC(=O)C[C@H]2[C@@H]3C=C[C@H]4C[C@@H](O)CC[C@]4(C)[C@H]3CC[C@]12C,pIC50,Aromatase [9],6.60
C[C@]12C=CC(=O)C=C1C=C(c1ccccc1)[C@@H]1[C@@H]2CC[C@]2(C)C(=O)CC[C@@H]12,pKi,Aromatase [10],5.65
C[C@]12CC[C@H]3[C@@H](CCC4=CC(=O)CC[C@@]43CS)[C@@H]1CCC2=O,pKi,Aromatase [11],7.47
C[C@]12CC[C@H]3[C@@H](CCC4=C(O)C(=O)CC[C@@]43C)[C@@H]1CC(=O)OC2,inhibition at 1 µM,Aromatase [12],34.8%
C[C@]12CC[C@H]3[C@@H](CCC4=CC(=O)CC[C@@]43C(F)F)[C@@H]1CCC2=O,pKi,Aromatase [13],6.00
C[C@]12CCC(=O)C(SCCl)=C1CC[C@@H]1[C@@H]2CC[C@]2(C)C(=O)CC[C@@H]12,pIC50,Aromatase [14],6.03
C[C@]12CCC(=O)C=C1C[C@@H](Sc1ccc(Br)cc1)[C@@H]1[C@@H]2CC[C@]2(C)C(=O)CC[C@@H]12,inhibition at […],Aromatase [15],45%
C=C1C=C2CC[C@@H]3[C@H](CC[C@]4(C)C(=O)CC[C@@H]34)[C@@]2(CO)CC1,inhibition (INH),Aromatase [1],80%
C[C@]12CC[C@H]3[C@@H](CCC4=C(F)C(=O)CC[C@@H]43)[C@@H]1CCC2=O,pKi,Aromatase [3],7.05
C[C@]12CC[C@H]3[C@@H](CCC4=CC(=O)[C@H]5C[C@H](O)[C@]43C5)[C@@H]1CCC2=O,pKi,Aromatase [7],6.03
C[C@]12CC[C@H]3[C@@H](Cc4noc5c4[C@]3(C)CC[C@@H]5O)[C@@H]1CC[C@@H]2O,pIC50,Aromatase [4],3.92
same,inhibition (INH),Aromatase [5],50%
C[C@]12CC[C@H]3[C@@H](Cc4nn(Cc5ccccc5)c5c4[C@]3(C)CCC5=O)[C@@H]1CC[C@@H]2O,pIC50,Aromatase [6],6.61
C[C@]12CC[C@H]3[C@@H](/C(=N/OCCCn4ccnc4)C=C4C[C@@H](O)CC[C@@]43C)[C@@H]1CC[C@@H]2O,pIC50,Aromatase [16],5.51
C[C@]12CCC(=O)C(SCF)=C1CC[C@@H]1[C@@H]2CC[C@]2(C)C(=O)CC[C@@H]12,pIC50,Aromatase [14],6.10
C[C@]12CCC(=O)c3onc(c31)C[C@@H]1[C@@H]2CC[C@]2(C)C(=O)CC[C@@H]12,pIC50,Aromatase [4],5.72
same,inhibition (INH),Aromatase [5],50%
C[C@]12CCC(=O)C=C1CC[C@@H]1[C@@H]2CC[C@]2(C)C(=O)[C@H](Br)C[C@@H]12,inhibition at […],Aromatase [17],95%
C[C@]12C=CC(=O)C=C1C=C(CCc1ccccc1)[C@@H]1[C@@H]2CC[C@]2(C)C(=O)CC[C@@H]12,pKi,Aromatase [10],6.76
C[C@]12CCC(=O)C(O)=C1CC[C@@H]1[C@@H]2CC[C@]2(C)C(=O)CC[C@@H]12 [FORMESTANE],pIC50,Aromatase [18],5.92
same,pKi,Aromatase [19],7.37
same,Activity,[2],67%
same,inhibition at 1 µM,Aromatase [12],99.2%
CSCC[C@]12CCC(=O)C=C1CC[C@@H]1C2=CC[C@]2(C)C(=O)CC[C@@H]12,pIC50,Aromatase [20],7.92
C[C@]12C=CC(=O)C(O)=C1CC[C@@H]1[C@@H]2CC[C@]2(C)C(=O)CC[C@@H]12,inhibition (INH),Aromatase [21],30%
same,inhibition (INH),Aromatase [22],30%
C[C@]12CCC(=O)C=C1[C@@H](Br)C[C@@H]1[C@@H]2CC[C@]2(C)C(=O)CC[C@@H]12,inhibition at […],Aromatase [17],45%
C[C@]12CCC(=O)C(O)=C1C=C[C@@H]1[C@@H]2CC[C@]2(C)C(=O)CC[C@@H]12,inhibition (INH),Aromatase [21],30%
same,inhibition (INH),Aromatase [22],30%
C[C@]12CC[C@H]3O[C@H]3[C@@H]1CC[C@@H]1[C@@H]2CC[C@]2(C)C(=O)CC[C@@H]12,pIC50,Aromatase [23],6.74
C[C@]12CCC(=O)C(O)=C1C=C[C@@H]1[C@@H]2CC[C@]2(C)/C(=C/c3ccccn3)CC[C@@H]12,inhibition at 50 µM,Aromatase [24],92%
C[C@]12CCC(=O)C=C1[C@@H](OC(=O)CBr)C[C@@H]1[C@@H]2CC[C@]2(C)C(=O)CC[C@@H]12,pIC50,Aromatase [25],5.55
C[C@]12C=CC(=O)C(O)=C1C=C[C@@H]1[C@@H]2CC[C@]2(C)C(=O)CC[C@@H]12,inhibition (INH),Aromatase [21],30%
same,inhibition (INH),Aromatase [22],30%
C[C@]12CCC(=O)C=C1C(=O)C[C@@H]1[C@@H]2CC[C@]2(C)/C(=C/c3ccccn3)CC[C@@H]12,inhibition at 50 µM,Aromatase [24],108%
C[C@]12C=CC(=O)C=C1C=C[C@@H]1[C@@H]2CC[C@@]2(C)[C@H]1CC[C@@]2(O)Cc1ccccn1,inhibition (INH),Aromatase [26],51.5%
C[C@]12CC[C@H](O)C(N=[N+]=[N-])=C1CC[C@@H]1[C@@H]2CC[C@]2(C)/C(=N/O)CC[C@@H]12,INH,Aromatase [27],32.8%
C[C@]12CC[C@H]3[C@@H](CCC4=CC(=O)[C@H]5C[C@@H](O)[C@]43C5)[C@@H]1CCC2=O,pKi,Aromatase [7],6.06
C[C@]12CCC(=O)C=C1CC[C@@H]1[C@@H]2CC[C@@]2(C)[C@H]1CC[C@@]2(O)Cc1ccccn1,inhibition (INH),Aromatase [26],51.5%
C[C@@H]1OC(=O)C[C@H]2[C@@H]3CCC4=CC(=O)CC[C@]4(C)[C@H]3CC[C@]12C,pIC50,Aromatase [9],6.55
C[C@]12CCC(=O)C(c3ccc(OS(N)(=O)=O)cc3)=C1CC[C@@H]1[C@@H]2CC[C@]2(C)C(=O)CC[C@@H]12,pKi,Aromatase [28],7.01
same,pIC50,Aromatase [23],6.00
CS[C@]12C=CC(=O)C=C1CC[C@H]1[C@@H]3CC[C@H](O)[C@@]3(C)CC[C@@H]12,pKi,Aromatase [29],6.21
CC(=O)O[C@H]1CC[C@@]2(C)C(=C/C(=N\OCCCn3ccnc3)[C@H]3[C@@H]4CC[C@H](OC(C)=O)[C@@]4(C)CC[C@@H]32)C1,pIC50,Aromatase [16],4.92
C[C@]12CC=C3[C@@H](CCC4=CC(=O)CC[C@@]43CCSCF)[C@@H]1CCC2=O,pIC50,Aromatase [20],7.30
C[C@]12CCC(=O)C=C1C[C@@H](Sc1ccc(Cl)cc1)[C@@H]1[C@@H]2CC[C@]2(C)C(=O)CC[C@@H]12,inhibition at […],Aromatase [15],45%
C[C@@H]1OC(=O)C[C@H]2[C@@H]3CCC4=C(O)C(=O)CC[C@]4(C)[C@H]3CC[C@]12C,inhibition at 1 µM,Aromatase [12],23.3%
